This is an account of results in ChEMBL document CHEMBL3627684, “Discovery of spirocyclic-diamine inhibitors of mammalian acetyl CoA-carboxylase” (Bioorg Med Chem Lett, 2015).

Data set [1] can be described thus: Inhibition of acetyl-CoA carboxylase in rat cryopreserved hepatocytes assessed as suppression of de novo lipogenesis. The class given is cell-based. The conditions noted are these: hepatocyte.
Data set [2] addresses Acetyl-CoA carboxylase 2 (Homo sapiens, UniProt O00763). Put plainly: Inhibition of recombinant human ACC2 expressed in CHO cells by fluorescence polarization assay.
Data set [3] in a line: Intrinsic clearance in human liver microsomes.
The target in data set [4] is Acetyl-CoA carboxylase 1 (Rattus norvegicus, UniProt P11497). Put plainly: Inhibition of rat liver ACC1 preincubated for 10 mins followed by acetyl-CoA/KHCO3/[14C]-NaHCO3/ATP addition measured after 20 mins by liquid scintillation counting analysis.
Data set [5] can be described thus: Plasma clearance in rat. The class given is ADME, organism-based.

Where only a bound is given, the exact number is not on record here.

Chain of Acetyl-CoA carboxylase 2 (O00763 whole entry): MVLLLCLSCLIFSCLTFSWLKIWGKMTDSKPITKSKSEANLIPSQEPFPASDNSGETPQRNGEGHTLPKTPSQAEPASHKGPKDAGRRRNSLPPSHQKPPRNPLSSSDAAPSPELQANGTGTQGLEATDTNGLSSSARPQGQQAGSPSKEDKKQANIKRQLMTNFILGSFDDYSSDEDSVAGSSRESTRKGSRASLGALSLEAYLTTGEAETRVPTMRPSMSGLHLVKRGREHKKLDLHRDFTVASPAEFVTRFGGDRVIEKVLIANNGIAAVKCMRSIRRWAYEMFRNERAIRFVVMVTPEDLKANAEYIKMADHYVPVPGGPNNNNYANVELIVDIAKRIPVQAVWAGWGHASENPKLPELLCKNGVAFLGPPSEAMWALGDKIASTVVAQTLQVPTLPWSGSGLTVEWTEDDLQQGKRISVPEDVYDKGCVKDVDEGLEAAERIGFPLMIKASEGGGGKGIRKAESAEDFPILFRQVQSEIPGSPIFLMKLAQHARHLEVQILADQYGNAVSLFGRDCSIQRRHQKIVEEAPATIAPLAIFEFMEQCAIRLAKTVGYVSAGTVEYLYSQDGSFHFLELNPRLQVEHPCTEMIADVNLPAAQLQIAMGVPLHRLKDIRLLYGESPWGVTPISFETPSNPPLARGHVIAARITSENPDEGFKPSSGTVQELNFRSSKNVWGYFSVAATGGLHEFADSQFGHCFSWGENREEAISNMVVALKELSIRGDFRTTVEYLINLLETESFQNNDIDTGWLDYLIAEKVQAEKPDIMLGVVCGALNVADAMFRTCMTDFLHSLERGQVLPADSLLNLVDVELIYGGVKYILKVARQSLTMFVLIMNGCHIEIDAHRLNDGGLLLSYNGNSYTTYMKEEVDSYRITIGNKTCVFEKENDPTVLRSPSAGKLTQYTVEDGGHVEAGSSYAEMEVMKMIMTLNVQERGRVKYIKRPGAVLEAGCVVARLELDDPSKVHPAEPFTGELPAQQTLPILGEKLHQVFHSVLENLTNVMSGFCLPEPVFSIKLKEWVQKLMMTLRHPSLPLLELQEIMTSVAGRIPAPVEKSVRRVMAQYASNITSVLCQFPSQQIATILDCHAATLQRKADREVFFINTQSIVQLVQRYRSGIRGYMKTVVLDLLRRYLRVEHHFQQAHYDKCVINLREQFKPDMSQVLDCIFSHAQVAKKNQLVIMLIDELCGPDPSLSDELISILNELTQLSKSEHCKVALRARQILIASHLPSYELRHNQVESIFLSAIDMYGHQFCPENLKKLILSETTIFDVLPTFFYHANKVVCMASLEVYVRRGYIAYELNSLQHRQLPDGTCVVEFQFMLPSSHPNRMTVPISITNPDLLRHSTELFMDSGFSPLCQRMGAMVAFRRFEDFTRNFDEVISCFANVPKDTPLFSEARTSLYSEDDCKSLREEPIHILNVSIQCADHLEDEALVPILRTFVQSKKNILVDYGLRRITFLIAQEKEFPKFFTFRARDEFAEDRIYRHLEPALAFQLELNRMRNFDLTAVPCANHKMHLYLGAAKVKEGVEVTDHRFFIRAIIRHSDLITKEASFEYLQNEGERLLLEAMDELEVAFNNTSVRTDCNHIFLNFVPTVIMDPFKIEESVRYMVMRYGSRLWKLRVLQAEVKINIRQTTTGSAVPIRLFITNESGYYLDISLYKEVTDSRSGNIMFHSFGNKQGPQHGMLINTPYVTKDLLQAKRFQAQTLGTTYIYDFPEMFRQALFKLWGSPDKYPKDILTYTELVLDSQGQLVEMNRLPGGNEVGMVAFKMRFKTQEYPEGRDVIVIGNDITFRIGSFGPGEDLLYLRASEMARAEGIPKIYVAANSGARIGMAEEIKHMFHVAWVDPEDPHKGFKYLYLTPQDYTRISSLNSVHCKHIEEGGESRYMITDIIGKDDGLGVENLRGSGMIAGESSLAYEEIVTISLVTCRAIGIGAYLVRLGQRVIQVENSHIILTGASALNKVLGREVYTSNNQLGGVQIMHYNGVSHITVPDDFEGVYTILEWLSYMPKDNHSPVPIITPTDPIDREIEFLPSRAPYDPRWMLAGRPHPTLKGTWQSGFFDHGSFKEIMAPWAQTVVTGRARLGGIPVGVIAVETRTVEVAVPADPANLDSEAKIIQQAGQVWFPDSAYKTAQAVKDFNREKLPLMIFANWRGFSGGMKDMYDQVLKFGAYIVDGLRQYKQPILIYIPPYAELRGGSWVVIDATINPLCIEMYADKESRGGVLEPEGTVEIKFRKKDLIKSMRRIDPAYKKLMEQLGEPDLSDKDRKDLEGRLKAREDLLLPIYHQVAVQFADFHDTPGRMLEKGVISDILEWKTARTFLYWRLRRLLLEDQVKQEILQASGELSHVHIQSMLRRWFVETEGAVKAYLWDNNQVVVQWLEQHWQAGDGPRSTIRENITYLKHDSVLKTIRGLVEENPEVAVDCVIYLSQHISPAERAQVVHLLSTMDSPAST

As to `CC(C)(C)n1cc2c(n1)C(=O)CC1(CCN(C(=O)c3ccc4[nH]ncc4c3)CC1)O2`, in data set [1], the IC50 was found to be 93 nM.
As to `Cc1cc(C(=O)N2CCC3(CCN(C(=O)OC(C)(C)C)CC3)C2)cc2cn[nH]c12`, the concentration for half-maximal inhibition (IC50) in data set [2] turned out to be 2200 nM; in data set [4] it was 1000 nM. The same compound registered a CLint scaled in data set [3] of 94 mL/min/kg.
For the compound `Cc1cc(C(=O)N2CCC3(CCN(C(=O)OC(C)(C)C)C3)CC2)cc2cn[nH]c12`, the IC50 in data set [2] was 1000 nM; in data set [4], 510 nM. The compound also registered an intrinsic clearance (CLint scaled) in data set [3] of 32 mL/min/kg.
The like results for `Cc1cc(C(=O)N2CC3(CCN(C(=O)OC(C)(C)C)CC3)C2)cc2cn[nH]c12` were, in that order, 2400 nM, 810 nM and 19 mL/min/kg.
The like results for `Cc1cc(C(=O)N2CCC3(CC2)CN(C(=O)OC(C)(C)C)C3)cc2cn[nH]c12` were, in that order, 800 nM, 450 nM and under 9 mL/min/kg.
On to `Cc1cc(C(=O)N2CCC3(CCN(C(=O)OC(C)(C)C)C3)C2)cc2cn[nH]c12` (stereo not drawn), for which the results for the half-maximal inhibitory concentration (IC50) in data set [2] and in data set [4] were 20000 nM and 11000 nM, respectively.
For `Cc1cc(C(=O)N2CC3(CN(C(=O)OC(C)(C)C)C3)C2)cc2cn[nH]c12`, the IC50 is over 10000 nM in data set [2] and over 30000 nM in data set [4].
Take `Cc1cc(C(=O)N2CCC3(CC2)CN(C(=O)OCC(C)(C)C)C3)cc2cn[nH]c12`: the IC50 in data set [2] amounted to 1400 nM; in data set [4] it was 310 nM.
With `Cc1cc(C(=O)N2CCC3(CC2)CN(C(=O)O[C@H](C)c2ccccc2)C3)cc2cn[nH]c12`, the IC50 in data set [2] was found to be 880 nM; in data set [4] it was 310 nM. The intrinsic clearance (CLint scaled) in data set [3] came out at 64 mL/min/kg.
With `Cc1cc(C(=O)N2CCC3(CCN(C(=O)OC(C)C)C3)CC2)cc2cn[nH]c12`, the IC50 was 4500 nM in data set [2] and 1600 nM in data set [4].
Turning to `Cc1cc(C(=O)N2CCC3(CCN(C(=O)OCC(C)(C)C)C3)CC2)cc2cn[nH]c12`, the IC50 in data set [2] worked out at 800 nM; in data set [4] it was 220 nM. Also, in data set [3], the CLint scaled came to 117 mL/min/kg.
For `Cc1cc(C(=O)N2CCC3(CCN(C(=O)OCc4ccccc4)C3)CC2)cc2cn[nH]c12`, the IC50 in data set [2] came to 4000 nM; in data set [4], 2100 nM.
For `Cc1cc(C(=O)N2CCC3(CCN(C(=O)O[C@H](C)c4ccccc4)C3)CC2)cc2cn[nH]c12`, the IC50 in data set [2] turned out to be 260 nM; in data set [4] it was 65 nM. The compound further yielded a CLint scaled in data set [3] of 117 mL/min/kg.
Consider `Cc1cc(C(=O)N2CCC3(CC2C)CN(C(=O)OC(C)(C)C)C3)cc2cn[nH]c12` (stereo not drawn), for which the results for the IC50 in data set [2] and in data set [4] were 9200 nM and 4800 nM, respectively. In addition, the CLint scaled in data set [3] turned out to be 46 mL/min/kg.
For the compound `Cc1cc(C(=O)N2CCC3(CC2)CN(C(=O)OC(C)(C)C)C3C)cc2cn[nH]c12` (stereo not drawn), the IC50 in data set [2] worked out at 900 nM; in data set [4], 240 nM. Further, the CLint scaled in data set [3] stood at 60 mL/min/kg.
Regarding `Cc1cc(C(=O)N2CCC3(CC2C)C[C@H](C)N(C(=O)OCC(C)(C)C)C3)cc2cn[nH]c12` (stereo partly drawn), the IC50 in data set [2] came to 5500 nM; in data set [4], 2200 nM.
`Cc1cc(C(=O)N2CCC3(CC2C)C[C@@H](C)N(C(=O)OCC(C)(C)C)C3)cc2cn[nH]c12` (stereo partly drawn): the half-inhibitory concentration (IC50) in data set [2] amounted to 1100 nM; in data set [4], 140 nM.
For the compound `Cc1cc(C(=O)N2CCC3(CC2)CCN(C(=O)OCC(C)(C)C)[C@H]3C)cc2cn[nH]c12`, the IC50 in data set [1] was 300 nM; in data set [2], 110 nM; in data set [4] it was 16 nM. In addition, the CLint scaled in data set [3] was determined as 106 mL/min/kg. In data set [5], this compound came in with a clearance of 52 mL/min/kg.
Turning to `Cc1cc(C(=O)N2CCC3(CC2)CCN(C(=O)OCC(C)(C)C)[C@@H]3C)cc2cn[nH]c12`, the IC50 came to 200 nM in data set [2] and 26 nM in data set [4].
With `Cc1cc(C(=O)N2CCC3(CCN(C(=O)OC(C)(C)C)C3)CC2C)cc2cn[nH]c12` (stereo in doubt; 3.3.1), the IC50 is over 14000 nM in data set [2] and 7900 nM in data set [4].
The like results for `Cc1cc(C(=O)N2CCC3(CCN(C(=O)OC(C)(C)C)C3)CC2C)cc2cn[nH]c12` (stereo in doubt; 3.3.2) were, in that order, over 17000 nM and 9300 nM.
